Laboratory results from ChEMBL document CHEMBL1136066, “Non-covalent thrombin inhibitors featuring P(3)-heterocycles with P(1)-monocyclic arginine surrogates” (Bioorg Med Chem Lett, 2002).

Columns and labels:
Serine protease 1 [1] = biological target: T1, Serine protease 1 (Homo sapiens, UniProt P07477)
Coagulation factor X [2] = biological target: T2, Coagulation factor X (Homo sapiens, UniProt P00742)
Prothrombin = Prothrombin (Homo sapiens, UniProt P00734); experiment: In vitro inhibitory constant against human thrombin (FIIa).
Serine protease 1 [3] = biological target: T1, Serine protease 1; remark: listed apart in the source
Coagulation factor X [4] = biological target: T2, Coagulation factor X; remark: listed apart in the source

T1 sequence (P07477 whole entry): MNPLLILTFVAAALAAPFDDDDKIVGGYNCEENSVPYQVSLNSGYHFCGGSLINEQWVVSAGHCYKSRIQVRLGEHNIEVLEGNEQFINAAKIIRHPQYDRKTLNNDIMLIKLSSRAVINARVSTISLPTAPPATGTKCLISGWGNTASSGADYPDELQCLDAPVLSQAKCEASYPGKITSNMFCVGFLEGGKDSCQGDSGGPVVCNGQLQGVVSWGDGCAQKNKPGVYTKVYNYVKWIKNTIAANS
T2 sequence (P00742 41-179 limits assumed): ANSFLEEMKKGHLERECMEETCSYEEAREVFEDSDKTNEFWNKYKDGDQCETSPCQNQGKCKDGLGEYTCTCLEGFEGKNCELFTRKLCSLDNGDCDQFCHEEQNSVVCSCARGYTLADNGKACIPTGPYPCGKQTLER
T2 sequence (P00742 235-488 limits assumed): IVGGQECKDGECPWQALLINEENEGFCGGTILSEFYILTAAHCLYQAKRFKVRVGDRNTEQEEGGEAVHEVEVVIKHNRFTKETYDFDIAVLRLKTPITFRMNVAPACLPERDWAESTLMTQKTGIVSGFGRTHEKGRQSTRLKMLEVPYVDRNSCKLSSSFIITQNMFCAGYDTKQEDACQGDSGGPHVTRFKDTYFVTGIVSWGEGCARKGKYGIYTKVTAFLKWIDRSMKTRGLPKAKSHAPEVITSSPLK

SMILES | Ki (Serine protease 1 [1]) | Ki (Coagulation factor X [2]) | Ki (Prothrombin) [nM] | Ki (Serine protease 1 [3]) [nM] | Ki (Coagulation factor X [4]) [nM]
Cc1nc(N)ncc1CNC(=O)Cn1c(C)cnc(NCCc2ccc3c(c2)CCO3)c1=O | Not Active | Not Active | 324 | – | –
Cc1cnc(NCCc2ccccc2)c(=O)n1CC(=O)NCc1cnc(N)cn1 | Not Active | Not Active | – | – | –
Cc1ccc(NS(=O)(=O)Cc2ccccc2)c(=O)n1CC(=O)NCc1nc(CN)cs1 | – | – | 136 | > 168 | > 338
Cc1nc(N)ncc1CNC(=O)Cn1c(C)cnc(NCCc2ccccc2)c1=O | Not Active | Not Active | 197 | – | –
Cc1ccc(NS(=O)(=O)Cc2ccccc2)c(=O)n1CC(=O)NCc1cnc(N)cn1 | Not Active | Not Active | 158 | – | –
Cc1cnc(NCCc2ccccc2)c(=O)n1CC(=O)NCc1ccc(C(=N)N)cc1 | – | Not Active | – | 19.7 | –
Cc1cnc(NCCc2ccccc2)c(=O)n1CC(=O)NCc1cnc(N)nc1 | Not Active | Not Active | 357 | – | –
COc1cccc(S(=O)(=O)Nc2cccn(CC(=O)NCc3ccc(C(=N)N)cc3)c2=O)c1 | – | – | 5.3 | 18.7 | 153
Cc1nc(N)ncc1CNC(=O)Cn1c(C)cnc(NCC(F)(F)c2ccccc2)c1=O | Not Active | Not Active | 141 | – | –
Cc1cnc(NCCc2ccccc2)c(=O)n1CC(=O)NC[C@@H]1CNC(N)=N[C@@H]1C | Not Active | Not Active | 3.2 | – | –
Cc1ccc(NS(=O)(=O)Cc2ccccc2)c(=O)n1CC(=O)NCc1ccc(C(=N)N)c(F)c1 | Not Active | Not Active | 3.6 | – | –
Cc1cnc(NCCc2ccccc2)c(=O)n1CC(=O)NCc1ccc(C(=N)NO)s1 | Not Active | Not Active | 30.8 | – | –
Cc1ccc(NS(=O)(=O)Cc2ccccc2)c(=O)n1CC(=O)NCc1ccc(C(=N)N)s1 | – | – | 0.1 | 13.6 | 96.4
Cc1cnc(NCC2(c3ccc(Cl)cc3)CCC2)c(=O)n1CC(=O)NCc1cnc(N)cn1 | Not Active | Not Active | 5.5 | – | –
Cc1nc(N)ncc1CNC(=O)Cn1c(C)ccc(NS(=O)(=O)Cc2cccc3c2OCCO3)c1=O | Not Active | Not Active | – | – | –
Cc1nc(N)nc(C)c1CNC(=O)Cn1c(C)ccc(NS(=O)(=O)Cc2ccccc2)c1=O | Not Active | Not Active | 281 | – | –
Cc1ccc(NS(=O)(=O)Cc2ccccc2)c(=O)n1CC(=O)NCc1ccc(C(=N)N)cc1 | – | Not Active | 0.37 | 49.3 | –

SMILES | Ki (Serine protease 1 [1]) | Ki (Coagulation factor X [2]) | Ki (Prothrombin) [nM] | Ki (Serine protease 1 [3]) [nM] | Ki (Coagulation factor X [4]) [nM]
Cc1cnc(NCC(F)(F)c2ccc(F)cc2)c(=O)n1CC(=O)NCc1cnc(N)cn1 | Not Active | Not Active | 5.9 | – | –
Cc1ccc(NS(=O)(=O)Cc2ccccc2)c(=O)n1CC(=O)NCc1cnc(N)nc1 | Not Active | Not Active | 462 | – | –
COc1cccc(S(=O)(=O)Nc2cccn(CC(=O)NCc3nc(C(=N)N)cs3)c2=O)c1 | – | – | 5.9 | > 168 | 179
Cc1ccc(NS(=O)(=O)Cc2ccccc2)c(=O)n1CC(=O)NCC1CN=C(N)NC1 (stereo unspecified) | Not Active | Not Active | 1 | – | –
COC(=O)c1ccc(F)cc1CS(=O)(=O)Nc1ccc(C)n(CC(=O)N[C@H](CCCN=C(N)N)C(=O)O)c1=O | – | – | 0.1 | 16.6 | 1810
Cc1ccc(NS(=O)(=O)Cc2ccccc2)c(=O)n1CC(=O)NC[C@@H]1CNC(N)=N[C@@H]1C | Not Active | Not Active | 1.1 | – | –
Cc1cnc(NCCc2ccccc2)c(=O)n1CC(=O)NCc1ccc(C(=N)N)s1 | – | Not Active | 0.12 | 4.4 | –
COc1cccc(S(=O)(=O)Nc2cccn(CC(=O)NCc3ccc(C(=N)N)cc3F)c2=O)c1 | – | – | 6 | 31.3 | 249
Cc1cnc(NCC(F)(F)c2ccccc2)c(=O)n1CC(=O)NCc1cnc(N)cn1 | Not Active | Not Active | 9.8 | – | –
COc1cccc(S(=O)(=O)Nc2cccn(CC(=O)NCc3ccc(C(=N)N)cc3Cl)c2=O)c1 | – | – | 20.8 | 76.5 | –
Cc1nc(N)ncc1CNC(=O)Cn1c(C)ccc(NS(=O)(=O)Cc2ccccc2)c1=O | Not Active | Not Active | 85.2 | – | –
COc1cccc(S(=O)(=O)Nc2cccn(CC(=O)NCc3ccc(C(=N)N)cc3OC)c2=O)c1 | – | – | 1.6 | 11.9 | 76.8
Cc1cnc(NCCc2ccccc2)c(=O)n1CC(=O)NCc1ccc(C(=N)NO[Si](C)(C)C(C)(C)C)s1 | Not Active | Not Active | 13.2 | – | –
Cc1cnc(NCCc2ccccc2)c(=O)n1CC(=O)NCC1CN=C(N)NC1 (stereo unspecified) | Not Active | Not Active | 1.9 | – | –
Cc1ccc(NS(=O)(=O)Cc2ccccc2F)c(=O)n1CC(=O)N[C@H](CCCNC(=N)N)C(=O)O [CVS-2359] | – | – | 0.14 | 12.4 | 674
Cc1nc(N)ccc1CNC(=O)Cn1c(C)ccc(NS(=O)(=O)Cc2ccccc2)c1=O [L-374087] | Not Active | – | 0.68 | – | –
Cc1nc(N)ccc1CNC(=O)Cn1c(C)cnc(NCCc2ccccc2)c1=O [L-375378] | Not Active | – | 1 | – | –
